{
  "source": "patent US20250304587A1",
  "about": "“WEE1 INHIBITOR, PREPARATION THEREFOR AND USE THEREOF” (JIANGSU TASLY DIYI PHARMACEUTICAL CO., LTD., priority 2022, published 2025)",
  "key": {"[1]": {"test": "Plasma protein binding (equilibrium dialysis), mouse", "details": "mouse, plasma", "description": "(§5) Sample preparation: The compound was dissolved in DMSO to a stock solution of 10 mM, then the compound was diluted with PBS to a secondary stock solution of 0.02 mM, and then the above 0.02 mM was diluted to 1 μM using blank plasma, which was the sample to be incubated.\n(§6) Dialysis set-up preparation: 400 μL of blank PBS was first added to the white wells of the equilibrated dialysis plate and 200 μL of the configured plasma sample was added to the red wells, and the dialysis plate was sealed with a sealing film.\n(§7) Recovery plate preparation: Two 96-well deep-well plates, labelled T0 and T5, were prepared and all plasma samples were added at n=2. 300 μL of acetonitrile (Verapamil-HCl, 4 ng/mL) was added directly to the TO plate, followed by 50 μL of blank PBS mix well for 5 min and left to stand in a 4° C. refrigerator until the end of the incubation.\n(§8) Experimental Operation: The dialysis device and the T5 plate were incubated together for 5 h in a microplate thermostatic shaker (37° C., using 300 rpm or minimum speed). At the end of the incubation, 300 μL of acetonitrile (Verapamil-HCl, 4 ng/mL) was added and 50 μL of PBS solution was added. At the end of the dialysis incubation, a new 96-well deep well plate was taken. Add 50 μL of plasma well sample to the corresponding position of the 96-well plate, 300 μL of acetonitrile and 50 μL of blank PBS; take 50 μL of buffer well sample to the corresponding position of the 96-well plate, then add 300 μL of acetonitrile and 50 μL of blank plasma. Add 300 μL of acetonitrile (Verapamil-HCl, 4 ng/mL) to the plasma-containing wells of the T5 plate, and then 50 μL of PBS solution was added. Shake for 5 min to fully precipitate the proteins and centrifuge at 20,000 g for 10 min at 4° C. Add 200 μL of supernatant to 200 μL of pure water, mix well and perform LC-MS/MS analysis.\n(§9) • Plasma protein binding rate=[(Rpe−Rb)/Rpe]×100% • Recovery=[(Rpe+Rb)/R5 h]×100% • Stability=(R5/R0)×100%\n(§10) • Rpe=ratio of plasma-side testing sample peak area to internal standard • Rb=ratio of buffer side testing sample peak area to internal standard • R5=ratio of incubator stability sample peak area to internal standard • R0=ratio of refrigerator stability sample peak area to internal standard"}, "[2]": {"test": "Membrane permeability in Caco-2 model", "assay_type": "in vitro ADME", "details": "human, Caco-2, pH 7.4; Caco2, 10 μM, 90 min", "in_short": "(§1)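 Caco-2 monolayers grown 21-28 days post-seeding, integrity checked by Lucifer Yellow Papp. Apical and basolateral compound levels measured by LC-MS/MS against a standard curve to derive apparent permeability (Papp).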"}, "BxPC3 cells": {"system": "BxPC3 cells", "test": "Cell Titer-Glo anti-proliferation, BxPC3 cells", "assay_type": "cell-based, human", "details": "Homo sapiens, BXPC-3, 72 h, 3 days, read-out: Anti-proliferative activity BxPC3 (IC50 class)", "in_short": "(§2)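 Each line was exposed to graded compound concentrations for 3 days at 37 °C, 5% CO2, with final DMSO at 0.2%. Viability was measured by Cell Titer-Glo luminescence, with untreated cells as the maximum and medium as the minimum signal. IC50 came from a variable-slope log(inhibitor)-response fit.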"}, "CYP2C9": {"target": "CYP2C9 (Homo sapiens (Human), UniProt P11712)", "sequence (P11712 whole entry, canonical isoform)": "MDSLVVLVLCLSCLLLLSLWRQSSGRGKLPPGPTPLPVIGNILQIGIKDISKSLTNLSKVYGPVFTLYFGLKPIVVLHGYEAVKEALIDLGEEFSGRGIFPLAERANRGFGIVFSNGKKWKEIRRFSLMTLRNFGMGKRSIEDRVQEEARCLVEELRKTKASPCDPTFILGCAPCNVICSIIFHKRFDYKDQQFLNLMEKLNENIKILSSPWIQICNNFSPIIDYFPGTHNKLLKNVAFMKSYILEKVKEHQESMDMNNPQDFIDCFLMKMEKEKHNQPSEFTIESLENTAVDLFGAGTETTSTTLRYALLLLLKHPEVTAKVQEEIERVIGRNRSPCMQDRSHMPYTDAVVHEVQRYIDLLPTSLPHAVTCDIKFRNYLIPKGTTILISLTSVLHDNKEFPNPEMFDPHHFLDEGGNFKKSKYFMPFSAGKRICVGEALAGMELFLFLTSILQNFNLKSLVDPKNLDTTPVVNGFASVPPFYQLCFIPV", "test": "Cytochrome P450 inhibition (fluorescence), CYP2C9", "assay_type": "in vitro ADME", "details": "read-out: IC50 CYP2C9", "procedure": "(§3) Enzymatic experiments were performed to quantify the inhibition of CYP450 enzyme activity of each isoform of CYP450 by small molecule inhibitors through fluorescence generated by the oxidation of the substrate by cytochrome P450. […] The Solution B composition used for the experiment was: 40 U/mL G6PDH (Sigma-aldrich, Cat #G6378). The substrate mix was 0.05× Solution A, 0.01× Solution B, 50 mM Potassium Phosphate, 0.01 mM BOMCC/0.01 mM EOMCC/0.001 mM DBOMF. […] The data were analyzed and processed using GraphPad Prism 6 software to obtain IC50 values."}, "HT-29 cells": {"system": "HT-29 cells", "test": "Cell Titer-Glo anti-proliferation, HT-29 cells", "assay_type": "cell-based, human", "details": "Homo sapiens, HT-29, 72 h, 3 days, read-out: Anti-proliferative activity HT-29 (IC50 class)", "in_short": "as §2"}, "CYP 2B6": {"target": "CYP 2B6 (Homo sapiens (Human), UniProt P20813)", "sequence (P20813 whole entry)": "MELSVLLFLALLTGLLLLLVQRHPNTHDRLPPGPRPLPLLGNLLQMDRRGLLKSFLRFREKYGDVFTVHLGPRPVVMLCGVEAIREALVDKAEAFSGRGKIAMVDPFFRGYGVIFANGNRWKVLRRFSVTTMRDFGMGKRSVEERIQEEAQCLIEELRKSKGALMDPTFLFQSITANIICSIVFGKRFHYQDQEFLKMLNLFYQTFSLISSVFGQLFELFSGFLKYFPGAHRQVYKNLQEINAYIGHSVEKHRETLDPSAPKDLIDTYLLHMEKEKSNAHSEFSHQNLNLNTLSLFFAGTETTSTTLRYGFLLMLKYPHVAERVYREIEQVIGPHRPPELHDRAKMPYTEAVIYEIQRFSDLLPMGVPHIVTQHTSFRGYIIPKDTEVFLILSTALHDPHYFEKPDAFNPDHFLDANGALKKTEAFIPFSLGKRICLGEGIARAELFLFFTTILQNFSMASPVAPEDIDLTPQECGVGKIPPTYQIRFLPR", "test": "Cytochrome P450 inhibition, CYP2B6", "assay_type": "in vitro ADME", "procedure": "as §3"}, "[3]": {"test": "Plasma protein binding (equilibrium dialysis), rat", "assay_type": "in vitro ADME", "details": "5 h dialysis, read-out: Plasma Protein binding (PPB) Rat (converted)"}, "[4]": {"details": "SD, rat, in vivo, 14 days"}, "CYP2D6": {"target": "CYP2D6 (Homo sapiens (Human), UniProt P10635)", "sequence (P10635 whole entry)": "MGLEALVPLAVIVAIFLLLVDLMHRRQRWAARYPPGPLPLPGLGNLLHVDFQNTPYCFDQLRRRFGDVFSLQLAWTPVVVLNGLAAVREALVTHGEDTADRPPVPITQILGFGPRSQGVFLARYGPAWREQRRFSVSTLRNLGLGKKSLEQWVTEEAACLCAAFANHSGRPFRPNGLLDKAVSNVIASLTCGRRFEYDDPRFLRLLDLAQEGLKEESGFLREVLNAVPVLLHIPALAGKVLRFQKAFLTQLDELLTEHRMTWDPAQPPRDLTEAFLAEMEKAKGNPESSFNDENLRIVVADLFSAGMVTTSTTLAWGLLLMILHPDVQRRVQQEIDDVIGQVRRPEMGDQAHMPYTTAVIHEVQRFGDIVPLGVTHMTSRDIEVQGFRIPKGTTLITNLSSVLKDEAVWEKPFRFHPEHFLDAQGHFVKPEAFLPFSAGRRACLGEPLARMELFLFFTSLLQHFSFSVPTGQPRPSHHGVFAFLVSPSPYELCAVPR", "test": "Cytochrome P450 inhibition (fluorescence), CYP2D6", "assay_type": "in vitro ADME", "details": "read-out: IC50 CYP2D6", "procedure": "as §3"}, "OVCAR-3 cells": {"system": "OVCAR-3 cells", "test": "Cell Titer-Glo anti-proliferation, OVCAR-3 cells", "assay_type": "cell-based", "details": "Homo sapiens, OVCAR-3, 72 h, 3 days, read-out: Anti-proliferative activity OVCAR-3 (IC50 class)", "in_short": "as §2"}, "HK2 cells": {"system": "HK2 cells", "test": "Cell Titer-Glo anti-proliferation, normal cells HK2", "assay_type": "cell-based", "details": "Homo sapiens, HK-2", "in_short": "(§4)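 Cells were exposed to serial compound concentrations (0.2% DMSO final) for 3 days at 37 °C, 5% CO2, then lysed with Cell Titer-Glo and read by luminescence. Inhibition was referenced to untreated-cell and medium-only controls, and IC50 came from a four-parameter variable-slope log(inhibitor)–response fit.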"}, "HUVEC cells": {"system": "HUVEC cells", "test": "Cell Titer-Glo anti-proliferation, normal cells HUVEC", "assay_type": "cell-based", "details": "Homo sapiens, HUVEC", "in_short": "as §4"}, "CYP1A2": {"target": "CYP1A2 (Homo sapiens (Human), UniProt P05177)", "sequence (P05177 whole entry)": "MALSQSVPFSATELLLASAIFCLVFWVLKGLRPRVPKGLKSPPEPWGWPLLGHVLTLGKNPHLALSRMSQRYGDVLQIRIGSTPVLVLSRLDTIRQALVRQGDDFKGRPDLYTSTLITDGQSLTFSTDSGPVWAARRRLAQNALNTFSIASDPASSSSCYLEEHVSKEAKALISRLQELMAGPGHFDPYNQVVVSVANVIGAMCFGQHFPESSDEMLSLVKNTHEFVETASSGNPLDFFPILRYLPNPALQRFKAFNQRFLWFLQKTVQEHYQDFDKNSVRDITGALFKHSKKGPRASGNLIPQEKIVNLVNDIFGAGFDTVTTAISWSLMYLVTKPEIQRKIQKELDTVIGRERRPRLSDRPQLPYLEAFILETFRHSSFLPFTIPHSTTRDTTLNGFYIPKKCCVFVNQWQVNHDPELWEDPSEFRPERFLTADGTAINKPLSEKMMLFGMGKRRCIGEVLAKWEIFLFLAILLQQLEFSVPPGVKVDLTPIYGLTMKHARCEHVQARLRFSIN", "test": "Cytochrome P450 inhibition (fluorescence), CYP1A2", "assay_type": "in vitro ADME", "details": "read-out: IC50 CYP1A2", "procedure": "as §3"}, "plasma protein [5]": {"system": "plasma protein", "test": "Plasma protein binding (equilibrium dialysis), mouse", "details": "mouse plasma, 1 μM, 5 h dialysis", "description": "as §5, §6, §7, §8, §9, §10"}, "Caco-2 cells": {"system": "Caco-2 cells", "test": "Membrane permeability in Caco-2 model", "assay_type": "in vitro ADME", "in_short": "as §1"}, "plasma protein [6]": {"system": "plasma protein", "test": "Plasma protein binding (equilibrium dialysis), rat", "assay_type": "in vitro ADME", "details": "1 μM, 5 h dialysis"}, "hERG potassium channel": {"target": "hERG potassium channel (Homo sapiens (Human), UniProt Q12809)", "sequence (Q12809 whole entry)": "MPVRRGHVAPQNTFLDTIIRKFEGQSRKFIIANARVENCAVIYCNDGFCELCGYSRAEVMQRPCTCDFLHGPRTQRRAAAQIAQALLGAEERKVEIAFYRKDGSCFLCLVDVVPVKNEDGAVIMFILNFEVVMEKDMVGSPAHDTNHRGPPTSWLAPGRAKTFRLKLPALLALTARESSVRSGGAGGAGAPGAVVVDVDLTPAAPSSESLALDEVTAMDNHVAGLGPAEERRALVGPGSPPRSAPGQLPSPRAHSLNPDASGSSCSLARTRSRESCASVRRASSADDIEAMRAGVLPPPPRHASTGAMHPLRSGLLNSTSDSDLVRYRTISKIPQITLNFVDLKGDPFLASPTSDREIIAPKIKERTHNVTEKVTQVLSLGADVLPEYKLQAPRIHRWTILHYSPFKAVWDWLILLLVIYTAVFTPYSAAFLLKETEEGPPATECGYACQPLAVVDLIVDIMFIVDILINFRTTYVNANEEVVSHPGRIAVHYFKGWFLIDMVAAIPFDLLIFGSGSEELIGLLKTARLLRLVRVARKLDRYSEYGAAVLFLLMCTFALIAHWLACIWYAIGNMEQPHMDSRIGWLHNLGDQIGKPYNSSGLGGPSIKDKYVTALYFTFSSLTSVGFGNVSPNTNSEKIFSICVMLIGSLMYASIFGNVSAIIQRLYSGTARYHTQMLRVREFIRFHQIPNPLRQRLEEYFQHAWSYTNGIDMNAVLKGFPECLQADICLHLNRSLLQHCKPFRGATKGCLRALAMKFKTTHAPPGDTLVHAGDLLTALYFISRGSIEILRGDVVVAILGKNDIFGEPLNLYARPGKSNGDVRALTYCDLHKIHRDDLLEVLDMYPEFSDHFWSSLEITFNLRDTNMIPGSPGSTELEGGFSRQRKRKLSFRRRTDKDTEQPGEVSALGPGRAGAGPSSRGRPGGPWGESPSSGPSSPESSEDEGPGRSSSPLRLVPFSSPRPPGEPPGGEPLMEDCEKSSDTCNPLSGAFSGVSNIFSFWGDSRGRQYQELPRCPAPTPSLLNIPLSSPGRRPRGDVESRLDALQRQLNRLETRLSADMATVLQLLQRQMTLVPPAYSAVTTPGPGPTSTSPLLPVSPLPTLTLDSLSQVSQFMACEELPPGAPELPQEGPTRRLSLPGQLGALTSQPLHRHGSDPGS", "test": "hERG potassium channel inhibition, patch clamp in CHO hERG cells", "description": "The cell line used for the patch clamp assay was a 10th generation CHO cell overexpressing hERG potassium channel cDNA. CHO hERG cells were cultured in Petri dishes or flasks at 37° C. in a 5% CO2 incubator. Cells were dropped onto circular slides 24-48 hours prior to electrophysiological experiments and cultured in cell culture medium and used for experiments after the cells had been adhered.\nCell culture medium (purchased from Invitrogen) Composition: • Ham's F12 medium • 10% (v/v) heat inactivated FBS • 100 μg/ml Hygromycin B (thaumatin) • 100 μg/ml Geneticin (Genomycin, G418)\nCompound powders are dissolved in the extracellular solution and are subjected to a routine 5 to 10 minute sonication and shaking to ensure complete dissolution of the compound.\nThe final concentrations of compounds used for electrophysiological assays were 5, 20 μM and the final concentration of DMSO was 0.1%.\nCell membrane currents were recorded using a HEKA EPC-10 USB patch-clamp amplifier (HEKA Elektronik, Germany). • 1) A coverslip with a large number of uniformly growing individual CHO hERG cells on its surface was taken. Place in a continuous recording cell on an inverted microscope, perfused with extracellular fluid (approximately 1 ml per minute) and recorded continuously, waiting for the current to stabilize. • 2) Record HERG channel currents for individual cells using standard whole cell recording mode. The membrane voltage is first clamped at −80 mV and the cell is given a +20 mV stimulus for 5 s to activate the hERG potassium channel, then repolarized to −50 mV for 5 s to generate an outward tail current, which is continuously perfused until the current is stable, at which point the peak tail current is the control current value. • 3) The extracellular solution containing the drug to be tested was then perfused and recorded until the inhibitory effect of the drug on the hERG current reached a steady state, at which point the peak tail current was the post-drug current value. • 4) The cells are again perfused with the extracellular solution until the hERG current returns to or approaches the level prior to the addition of the drug, then the perfusion can be continued to test other concentrations or drugs. One or more compound or drug concentrations may be tested on each cell. • 5) Cisapride (C4740-10 mg, Sigma) is used as a positive control in the experiment to ensure that the cells used respond properly."}, "[7]": {"test": "Single dose toxicity in rats, maximum tolerated dose"}, "[8]": {"details": "female rats, 200 mg/kg by gavage"}, "[9]": {"details": "female rats, 300 mg/kg by gavage"}, "[10]": {"details": "female rats, 400 mg/kg by gavage"}, "[11]": {"details": "female rats, 500 mg/kg by gavage"}},
  "note": "Like-named read-outs stand apart in the source and are kept apart here.",
  "data": [
    {"smiles": "C=CCn1c(=O)c2cnc(Nc3ccc(N4CCN(C)CC4)cc3)nc2n1-c1cccc(C(C)(C)O)n1", "note": "[AZD1775, reference compound]", "values": [
      {"measurement": "fraction unbound at 5 h, 1 µM", "setting": "[1]", "value": 0.087},
      {"measurement": "Papp A→B at 90 min, 10 µM", "setting": "[2]", "value": 0.8, "unit": "×10⁻⁶ cm/s"},
      {"measurement": "Papp B→A at 90 min, 10 µM", "setting": "[2]", "value": 15.2, "unit": "×10⁻⁶ cm/s"},
      {"measurement": "IC50", "setting": "BxPC3 cells", "value": "100 to 1000", "unit": "nM"},
      {"measurement": "IC50", "setting": "CYP2C9", "value": "> 10000", "unit": "nM"},
      {"measurement": "IC50", "setting": "HT-29 cells", "value": "100 to 1000", "unit": "nM"},
      {"measurement": "IC50", "setting": "CYP 2B6", "value": "> 10000", "unit": "nM"},
      {"measurement": "fraction unbound at 5 h, 1 µM", "setting": "[3]", "value": 0.374},
      {"measurement": "Survival of Rats", "setting": "[4]; female, 25 mg/kg", "value": "7/7"},
      {"measurement": "Survival of Rats", "setting": "[4]; female, 75 mg/kg", "value": "0/7"},
      {"measurement": "Survival of Rats", "setting": "[4]; male, 25 mg/kg", "value": "7/7"},
      {"measurement": "Survival of Rats", "setting": "[4]; male, 75 mg/kg", "value": "1/7"},
      {"measurement": "IC50", "setting": "CYP2D6", "value": "> 10000", "unit": "nM"},
      {"measurement": "IC50", "setting": "OVCAR-3 cells", "value": "100 to 1000", "unit": "nM"},
      {"measurement": "IC50", "setting": "HK2 cells", "value": 260, "unit": "nM"},
      {"measurement": "IC50", "setting": "HUVEC cells", "value": "> 10000", "unit": "nM"},
      {"measurement": "IC50", "setting": "CYP1A2", "value": "> 10000", "unit": "nM"}
    ]},
    {"smiles": "[2H][C@]1(O)c2nc(-n3c4nc(Nc5ccc(N6CCC7(CCN(C)CC7)CC6)cc5)ncc4c(=O)n3CC=C)ccc2CCC12CC2", "note": "[Compound 37b]", "values": [
      {"measurement": "Plasma Protein binding (PPB) Mouse", "setting": "plasma protein [5]", "value": 92.46, "unit": "%"},
      {"measurement": "Efflux Ration", "setting": "Caco-2 cells; Caco2", "value": 21.06},
      {"measurement": "Papp A to B", "setting": "Caco-2 cells; Caco2, 10 μM, 90 min", "value": "0.46 10^−6 cm/s"},
      {"measurement": "Papp B to A", "setting": "Caco-2 cells; Caco2, 10 μM, 90 min", "value": "9.69 10^−6 cm/s"},
      {"measurement": "Plasma Protein binding (PPB) Rat", "setting": "plasma protein [6]", "value": 84.10, "unit": "%"},
      {"measurement": "hERG Inhibition", "setting": "hERG potassium channel; test concentration 5 μM", "value": "18.00 ± 4.80", "unit": "%"},
      {"measurement": "hERG Inhibition", "setting": "hERG potassium channel; test concentration 20 μM", "value": "34.70 ± 4.40", "unit": "%"},
      {"measurement": "Death Numbers", "setting": "[7]; [8]", "value": 0},
      {"measurement": "Death Rate", "setting": "[7]; [8]", "value": 0, "unit": "%"},
      {"measurement": "Death Numbers", "setting": "[7]; [9]", "value": 0},
      {"measurement": "Death Rate", "setting": "[7]; [9]", "value": 0, "unit": "%"},
      {"measurement": "Death Numbers", "setting": "[7]; [10]", "value": 3},
      {"measurement": "Death Rate", "setting": "[7]; [10]", "value": 60, "unit": "%"},
      {"measurement": "Death Numbers", "setting": "[7]; [11]", "value": 2},
      {"measurement": "Death Rate", "setting": "[7]; [11]", "value": 67, "unit": "%"},
      {"measurement": "Death Numbers", "setting": "[7]; male rats, 200 mg/kg by gavage", "value": 0},
      {"measurement": "Death Rate", "setting": "[7]; male rats, 200 mg/kg by gavage", "value": 0, "unit": "%"},
      {"measurement": "Death Numbers", "setting": "[7]; male rats, 300 mg/kg by gavage", "value": 0},
      {"measurement": "Death Rate", "setting": "[7]; male rats, 300 mg/kg by gavage", "value": 0, "unit": "%"},
      {"measurement": "Death Numbers", "setting": "[7]; male rats, 400 mg/kg by gavage", "value": 2},
      {"measurement": "Death Rate", "setting": "[7]; male rats, 400 mg/kg by gavage", "value": 40, "unit": "%"},
      {"measurement": "Death Numbers", "setting": "[7]; male rats, 500 mg/kg by gavage", "value": 2},
      {"measurement": "Death Rate", "setting": "[7]; male rats, 500 mg/kg by gavage", "value": 40, "unit": "%"}
    ]}
  ]
}
